In US10780069B2, “Use of GC-1 in transplant related population” (University of Pittsburgh—Of the Commonwealth System of …, priority 2017, dated 2020):
Entries after “also recorded” stand apart in the source; their conditions may differ.

Columns and labels:
[1] = tested on: hepatocytes; assay: GC-1 or T3 in hepatocyte specific β-catenin knockout mice (β-Cat LKO) and littermate controls; format: in vivo; conditions: control mice, GC-1 treated vs basal diet
[2] = tested on: hepatocytes; assay: as above; format: in vivo
Experimental: Eight to 10 week old male hepatocyte specific β-catenin knockout mice (β-cat-LKO) or sex-matched littermate controls obtained from breeding homozygous floxed β-catenin mice and albumin-cre transgenic mice (as described elsewhere (Tan et al., (2006) Gastroenterology 131, 1561-1572)) were given 8 daily IP injections of GC-1 (n=4) or DMSO (n=4) and harvested around 24 hours after the last injection.
(§1) To label dividing hepatocytes, BrdU (5-bromodeoxyuridine) dissolved in drinking water (1 mg/ml) was given to all animals throughout the experiment period. The animals were given food and water ad libitum with a 12-hour light/dark daily cycle.
(§2) Four micron liver sections were analyzed by immunohistochemistry for β-Catenin (BD Biosciences, San Jose, Calif.), Cyclin-D1 (Thermo-Scientific, Fremont, Calif.) and PCNA (Santa Cruz Biotechnology, Dallas, Tex.). Briefly, formalin-fixed sections were deparaffinized in graded xylene and alcohol. Endogenous peroxidase was inactivated using 3% hydrogen peroxide (Sigma). For β-Catenin, Cyclin-D1 staining, slides were microwaved in Citrate buffer followed by blocking with Superblock for 10 minutes. Sections were then incubated with secondary anti-mouse (for β-catenin) or anti-rabbit (for Cyclin-D1) horseradish peroxidase-conjugated antibody for 30 minutes.
(§3) Bromodeoxyuridine (BrdU) was stained with mouse antibody (Becton Dickinson) as previously described (Fanti et al. (2014) Hepatology 59, 2309-2320). Briefly, tissue sections were deparaffinized, exposed to 0.3% hydrogen peroxide in deionized water for 10 minutes to block endogenous peroxidase, treated with 2N HCl, incubated with trypsin 0.1% for 20 minutes and then with normal goat serum for 20 minutes at room temperature. Sections were then incubated overnight in cold room with anti-BrdU monoclonal antibody, followed by biotinylated goat anti-mouse IgG. DAB kit was then applied, and sections were counterstained with hematoxylin. A small segment of intestine was included from each mouse as a positive control for the staining. For quantification of BrdU staining, at least 10 high power fields (400× or 600×) fields each from at least three biological replicates were counted as indicated in the figures. Statistical analysis was performed as described below.
Protein extraction from frozen liver tissue and western blot analysis were performed as previously described (Fanti et al., (2014) Hepatology 59, 2309-2320). For protein extraction, a small amount of frozen liver tissue was obtained (over dry ice) and was homogenized using RIPA buffer with protease and phosphatase inhibitor cocktail (Sigma, St. Louis, Mo.). Samples were transferred to a 1.5 ml tube on ice, and spun in cold room centrifuge at 14,000 RPM for 5 minutes. Pellet was then discarded and sample was aliquoted and stored at −80 C for use. Fifty micrograms of the proteins were resolved by sodium dodecyl sulfate-polyacrylamide gel electrophoresis analysis, and transferred to immobilon-polyvinylidene difluoride membranes.
The primary antibodies used were against β-catenin (BD Biosciences); pSer675-β-catenin, pSer552-β-catenin, Active-β-catenin (Cell-Signaling), Cyclin-D1 (Thermo-Scientific), and β-Actin (Sigma). Dilutions of primary antibody were done according to manufacturer recommendations (1:1000 for all except Cyclin-D1 which was 1:200). Horseradish peroxidase-conjugated secondary antibodies used were goat anti-mouse (1:20,000) and goat anti-rabbit (1:10,000) (Millipore). The proteins were detected by Super-Signal West Pico Chemiluminescense Substrate (Thermo Scientific, Rockford Ill.) and visualized by autoradiography.
Total RNA was extracted by homogenizing frozen liver tissues in Trizol reagent (Invitrogen, Carlsbad, Calif.) from GC-1-injected β-Cat LKO (n=4) and littermate control mice (n=4); and GC-1-injected LRP5-6 LKO (n=3) and littermate control mice (n=3). […]

[3] = tested on: hepatocytes; assay: Partial hepatectomy after pretreatment with T3 or GC-1 supplemented diet; format: in vivo, mice
Experimental: as §1
After 7 days of receiving T3 supplemented diet (n=3) or GC-1 diet (n=3) or standard basal mouse chow (n=3), C57BL/6 male mice underwent partial hepatectomy as described previously (Tan et al. (2006) Gastroenterology 131, 1561-1572). Anesthesia was provided with inhaled Isoflurane. The animals were sacrificed 24 hours post hepatectomy, after Isoflurane anesthesia and cervical dislocation. Serum and liver tissue were harvested for further processing.
as §2, §3

[4] = tested on: β-catenin-TCF4 reporter activity in Hep3B cells (wild-type CTNNB1); assay: TopFlash reporter assay in Hep3B cells; format: cell-based, human; conditions: 7 μM GC-1 (methods: 5-7 μM, 24 hours), vs DMSO
Excerpt: Three liver tumor cell lines Hep3B, HepG2 and Snu-398 cells were obtained from ATCC (Manassas, Va.). Cells were transfected simultaneously with Renilla reniformis luciferase (pRL-TK; Promega, Madison, Wis.) as a transfection control and TopFlash firefly luciferase plasmids (Upstate Biotechnology, Lake Placid, N.Y.), which contains three copies of the Tcf/Lef sites upstream of a thymidine kinase (TK) promoter and the firefly luciferase gene using Lipofectamine 2000 (Life Technologies). Twenty-four hours after transfection, cells were treated with either DMSO (Fisher Scientific) or 5-7 μM GC-1 (Medchem Express, Monmouth Junction, N.J.) for 24 hours. Lysates were harvested using the Dual-Luciferase Reporter Assay System (Promega, Madison, Wis.). Firefly luciferase signals were normalized to Renilla luciferase and ratio between groups compared by student's t-test to determine significance. P<0.05 was considered significant.

[5] = tested on: hepatocytes; assay: T3- or GC-1-supplemented diet in wild type mice: hepatocyte proliferation; format: in vivo
Experimental: All studies on mice were performed in strict accordance with Guidelines. Eight-week old male C57BL/6 male mice (Jackson/Charles River) were maintained on a standard laboratory basal diet (Test Diet) (n=4), or fed a T3-supplemented diet (4 mg/Kg of diet, Sigma Chemicals, St. Louis Mo.) (n=4). GC-1 was administered to the eight week-old male C57BL/6 male mice either via GC-1-supplemented diet (5 mg/Kg of diet, Medchem Express) for 8 days (n=4) or via daily intraperitoneal injections (IP) of GC-1 dissolved in DMSO (0.3 mg/kg/dose) for 8 days (n=7). As a control group for injections, DMSO alone was injected daily intraperitoneal (IP) for 8 days (n=5). Mice were sacrificed 24 hours after the last injection.
as §1, §2, §3

## Cc1cc(OCC(=O)O)cc(C)c1Cc1ccc(O)c(C(C)C)c1 [GC-1, Sobetirome]
[1]
  active-β-catenin, Western blot: notable increase
[2]; β-Cat LKO after T3 or GC-1 treatment
  active β-catenin, Western blot: very faint signal
[2]; β-Cat LKO vs controls treated with GC-1 or T3
  P-Ser675-β-catenin, Western blot: absent
[2]; β-Cat LKO vs controls, GC-1
  nuclear cyclin-D1 by immunohistochemistry: notable decrease
[2]; β-Cat LKO vs littermate controls, GC-1 0.3 mg/Kg/dose IP, 8 days
  BrdU incorporation in hepatocytes (hepatocyte proliferation): decreased hepatocyte proliferation
[2]; β-Cat LKO, GC-1 IP
  BrdU incorporation in non-parenchymal cell population: notable BrdU incorporation continued to occur
[2]; β-catenin-LKO mice receiving GC-1 vs controls
  cyclin-D1 mRNA expression (RT-PCR): significant decrease
[3]; 24 hours after hepatectomy
  nuclear cyclin-D1 immunohistochemistry at 24 hours after hepatectomy: panlobular distribution
[3]; diet pretreatment, vs basal diet
  BrdU positive hepatocyte nuclei at 24 hours after hepatectomy: pronounced increase
[3]; pre-hepatectomy vs 24 hour-post hepatectomy, same animals, all three mice
  increase in hepatocyte proliferation over the 24-hour liver regeneration period: around 2 fold
[3]; pretreatment livers
  cyclin-D1 immunohistochemistry in resected lobes at time of hepatectomy: expansion of cyclin-D1 positive hepatocytes in the midzonal area
[3]; seven-day pretreatment, vs basal diet
  BrdU-positive hepatocytes in resected lobes at time of hepatectomy: increased BrdU-positive hepatocytes
[4]
  TopFlash luciferase reporter activity: no significant effect; also recorded: insignificant differences
[5]; GC-1 diet versus T3 diet, 8 days
  hepatocyte proliferation relative to T3: modestly less extent than T3
[5]; T3 (4 mg/Kg of diet) or GC-1 (5 mg/Kg of diet) chow 8 days, vs basal diet
  BrdU incorporation: increased BrdU incorporation
[5]; T3 diet or IP GC-1, 8 days, vs respective controls
  cyclin-D1 staining in hepatocytes: notably increased cyclin-D1 staining
[5]; T3 or GC-1 supplemented diet 8 days, vs basal diet
  cyclin-D1 staining in hepatocytes: increased in both groups
[5]; T3 supplemented diet versus IP GC-1, 8 days, p<0.001 between groups
  BrdU-positive hepatocytes, T3 diet versus IP GC-1: overall fewer number of BrdU-positive hepatocytes
